Laboratory results taken from patent EP1561465A2, “Methods of use of fluoroquinolone compounds against bacteria” (LG Life Sciences, Ltd., priority 1999, dated 2001).
Values after ≈ are worked out from the molar mass of the structure shown. Like-named read-outs stand apart in the source and are kept apart here.

Legend:
Format in all cases: cell-based
Streptococcus pneumoniae [1] = assay: MIC by agar dilution (NCCLS), 411 isolates Buenos Aires 1998-99; conditions: for MIC / MIC90: Streptococcus pneumoniae; for MIC: Ciprofloxacin-resistant S. pneumoniae, read-out: MIC; for MIC90: read-out: MIC90
Streptococcus pneumoniae [2] = assay: MIC by E-test (broth microdilution for gemifloxacin), 107 pneumococcal carrier isolates, Athens 1998; conditions: E-test; for MIC50 / MIC90: Streptococcus pneumoniae; for MIC50: read-out: MIC50; for MIC90: read-out: MIC90
Experimental: Susceptibility testing was performed by agar dilution or epsilometer method (E-test), as recommended by the NCCLS. […] The susceptibility profiles of the strains were assessed using the Epsilometer method (E-test). The isolates were subdivided into two groups according to their penicillin susceptibility patterns (penicillin-susceptible and penicillin-intermediate.

Pseudomonas aeruginosa = assay: MIC by agar dilution (NCCLS), 322 nosocomial Gram negative isolates, Athens 1998; conditions: n = 57 isolates
Staphylococcus aureus [3] = assay: MIC by agar macrodilution (NCCLS), 373 Gram positive isolates, Athens 1998; conditions: Methicillin-susceptible Staphylococcus aureus (n = 85)
Aeromonas spp. [4] = assay: MIC by agar dilution (NCCLS M7-A4), 288 enteropathogenic isolates, eight quinolones; conditions: Aeromonas spp. (n = 16)
Aeromonas spp. [5] = assay: MIC by agar dilution (NCCLS M7-A4), 288 enteropathogenic isolates, gemifloxacin and 15 other antimicrobials; conditions: Aeromonas spp. N= 16
Enterococcus faecalis = assay: MIC by agar dilution (NCCLS), 411 isolates Buenos Aires 1998-99; conditions: Enterococcus faecalis (n = 48)
Salmonella spp. [6] = assay: MIC by agar dilution (NCCLS M7-A4), 288 enteropathogenic isolates, eight quinolones; conditions: for MIC: ciprofloxacin MIC ≥[…], read-out: MIC
Salmonella spp. [7] = assay: MIC by agar dilution (NCCLS M7-A4), 288 enteropathogenic isolates, gemifloxacin and 15 other antimicrobials
Haemophilus influenzae = assay: MIC by broth microdilution (NCCLS), dried MicroScan panels, clinical isolates 1998-1999; conditions: for MIC90: Haemophilus influenzae
Hafnia alvei = assay: MIC by agar dilution (NCCLS M7-A4), 288 enteropathogenic isolates, gemifloxacin and 15 other antimicrobials; conditions: Hafnia alvei N= 32
Proteus mirabilis = assay: MIC by NCCLS broth microdilution, 1100 Japanese clinical isolates 1997-1998; conditions: Proteus mirabilis (n=30)
Staphylococcus aureus [8] = assay: as above; conditions: for MIC: Staphylococcus aureus quinolone resistant
Staphylococcus aureus [9] = assay: microbe, parasite or virus in culture; conditions: Staphylococcus aureus
Enterococcus gallinarum = assay: MIC by NCCLS broth microdilution, 1100 Japanese clinical isolates 1997-1998; conditions: Enterococcus gallinarum, GALLINARUM
Escherichia coli = assay: as above; conditions: for MIC50 / MIC90: Escherichia coli
[10] = Streptococcus pneumoniae (n = 90)
[11] = Penicillin-intermediate S. pneumoniae (n = 24)
[12] = Penicillin-susceptible S. pneumoniae (n = 107)
[13] = Haemophilus influenzae (300 isolates)
[14] = Staphylococcus aureus oxacillin susceptible (n=41)
[15] = Staphylococcus aureus, Staphylococcus aureus oxacillin resistant (n=57)
[16] = Escherichia coli ciprofloxacin susceptible (n=37)

For `CC1COc2c(N3CCN(C)CC3)c(F)cc3c(=O)c(C(=O)O)cn1c23` (stereo not drawn) [Ofloxacin, ofloxacin], the “MIC Range” value (Streptococcus pneumoniae [1]; [10]) was 1 to 16 µg/mL, the MIC (Streptococcus pneumoniae [1]; Strain 1) was 2 µg/mL (≈ 5.53 µM) and the MIC (Streptococcus pneumoniae [1]; Strain 2) was 2 µg/mL (≈ 5.53 µM). It also gave an MIC (Streptococcus pneumoniae [1]; Strain 3) of 16 µg/mL (≈ 44.3 µM), an MIC (Streptococcus pneumoniae [1]; Strain 4) of 8 µg/mL (≈ 22.1 µM) and an MIC90 (Streptococcus pneumoniae [1]; S. pneumoniae, Penicillin intermediate (n = 17)) of 2 µg/mL (≈ 5.53 µM). For the same molecule, the MIC90 (Streptococcus pneumoniae [1]; S. pneumoniae, Penicillin resistant (n = 4)) was 1 µg/mL (≈ 2.77 µM), the MIC90 (Streptococcus pneumoniae [1]; S. pneumoniae, Penicillin susceptible (n = 69)) was 2 µg/mL (≈ 5.53 µM) and the MIC90 (Streptococcus pneumoniae [1]; [10]) was 2 µg/mL (≈ 5.53 µM). For the same molecule, the MIC Range (Streptococcus pneumoniae [2]; Penicillin-intermediate S. pneumoniae (n = 24), in µg/mL (unit assumed)) was 0.75-6, the MIC50 (Streptococcus pneumoniae [2]; [11]) was 2 µg/mL (≈ 5.53 µM) and the MIC90 (Streptococcus pneumoniae [2]; [11]) was 3 µg/mL (≈ 8.3 µM). For the same molecule, the MIC50 (Streptococcus pneumoniae [2]; [12]) was 2 µg/mL (≈ 5.53 µM), the MIC90 (Streptococcus pneumoniae [2]; [12]) was 4 µg/mL (≈ 11.1 µM) and the MIC50 (Pseudomonas aeruginosa) was 2 µg/mL (≈ 5.53 µM). For the same molecule, the MIC90 (Pseudomonas aeruginosa) was over 64 µg/mL, the “MIC Range” value (Staphylococcus aureus [3]) was 0.25 to 32 µg/mL and the MIC90 (Staphylococcus aureus [3]; read-out: MIC90) was 1 µg/mL (≈ 2.77 µM). For the same molecule, the “% Susceptible” value (Aeromonas spp. [4]) was 100%, the MIC50 (Aeromonas spp. [4]) was at most 0.015 µg/mL and the MIC90 (Aeromonas spp. [4]) was 0.03 µg/mL (≈ 0.083 µM). The “MIC Range” value (Aeromonas spp. [4]) was at most 0.015 to 0.12 µg/mL, the “MIC (mg/L) Range” value (Aeromonas spp. [5]) was at most 0.015 to 0.12 mg/L and the MIC (Aeromonas spp. [5]; read-out: MIC (mg/L) 50%) was at most 0.015 mg/L. For the same molecule, the MIC (Aeromonas spp. [5]; read-out: MIC (mg/L) 90%) was 0.03 mg/L (≈ 0.083 µM), the MIC90 (Enterococcus faecalis) was over 32 µg/mL and the MIC (Salmonella spp. [6]; S. hadar (n = 2)) was 2 µg/mL (≈ 5.53 µM). The MIC (Salmonella spp. [6]; S. newport (n = 1)) was 2 µg/mL (≈ 5.53 µM), the “% Susceptible” value (Salmonella spp. [6]; Salmonella spp. (n = 106)) was 100% and the MIC50 (Salmonella spp. [6]; Salmonella spp. (n = 106)) was 0.12 µg/mL (≈ 0.332 µM). The MIC90 (Salmonella spp. [6]; Salmonella spp. (n = 106)) was 0.5 µg/mL (≈ 1.38 µM), the “MIC Range” value (Salmonella spp. [6]; Salmonella spp. (n = 106)) was 0.06 to 2 µg/mL and the MIC (Salmonella spp. [6]; Salmonella, S. tshiongwe (n = 1)) was 2 µg/mL (≈ 5.53 µM). The MIC (Salmonella spp. [7]; S. hadar(2), isolates with MICs for ciprofloxacin ≥[…], read-out: MIC) was 2 mg/L (≈ 5.53 µM), the MIC (Salmonella spp. [7]; S. newport(1), isolate with MIC for ciprofloxacin ≥[…], read-out: MIC) was 2 mg/L (≈ 5.53 µM) and the “MIC (mg/L) Range” value (Salmonella spp. [7]; Salmonella spp. N= 106) was 0.06 to 2 mg/L. It also gave an MIC (Salmonella spp. [7]; Salmonella, S. tshiongwe(1), isolate with MIC for ciprofloxacin ≥[…], read-out: MIC) of 2 mg/L (≈ 5.53 µM), an MIC (Salmonella spp. [7]; Salmonella, read-out: MIC (mg/L) 50%, Salmonella spp. N= 106) of 0.12 mg/L (≈ 0.332 µM) and an MIC (Salmonella spp. [7]; Salmonella, read-out: MIC (mg/L) 90%, Salmonella spp. N= 106) of 0.5 mg/L (≈ 1.38 µM). The MIC50 (Haemophilus influenzae; [13]) was at most 0.06 µg/mL, the “MIC Range” value (Haemophilus influenzae; [13]) was at most 0.06 to 0.5 µg/mL and the MIC90 (Haemophilus influenzae; [13]) was at most 0.06 µg/mL. The MIC90 (Haemophilus influenzae; β-lactamase negative (234)) was at most 0.06 µg/mL, the MIC90 (Haemophilus influenzae; β-lactamase positive (66)) was 0.12 µg/mL (≈ 0.332 µM) and the MIC (Hafnia alvei; 24 h, read-out: MIC (mg/L) Range) was 0.03 mg/L (≈ 0.083 µM). The MIC (Hafnia alvei; read-out: MIC (mg/L) 50%) was 0.03 mg/L (≈ 0.083 µM) and the MIC (Hafnia alvei; read-out: MIC (mg/L) 90%) was 0.03 mg/L (≈ 0.083 µM).

In the case of `NC1CCN(c2nc3c(cc2F)c(=O)c(C(=O)O)cn3-c2ccc(F)cc2F)C1` (stereo not drawn) [Tosufloxacin, tosufloxacin], the “MIC Range” value (Proteus mirabilis) is reported as 0.063 to 16 µg/mL, the MIC50 (Proteus mirabilis; read-out: MIC50) is reported as 0.25 µg/mL (≈ 0.618 µM) and the MIC90 (Proteus mirabilis; read-out: MIC90) is reported as 0.5 µg/mL (≈ 1.24 µM). The MIC90 (Staphylococcus aureus [8]; [14]) was 0.125 µg/mL (≈ 0.309 µM), the “MIC Range” value (Staphylococcus aureus [8]; [14]) was 0.016 to 1 µg/mL and the MIC50 (Staphylococcus aureus [8]; [15]) was 4 µg/mL (≈ 9.89 µM). For the same molecule, the MIC90 (Staphylococcus aureus [8]; [15]) was over 16 µg/mL, the MIC50 (Staphylococcus aureus [8]; Staphylococcus aureus, Staphylococcus aureus oxacillin susceptible (n=41)) was 0.063 µg/mL (≈ 0.156 µM) and the MIC (Staphylococcus aureus [8]; Staphylococcus aureus, strain TMS1* (spontaneous mutant resistant to ciprofloxacin)) was 0.25 µg/mL (≈ 0.618 µM). The MIC (Staphylococcus aureus [8]; Staphylococcus aureus, strain TMS3, read-out: MIC) was over 16 µg/mL, the MIC (Staphylococcus aureus [8]; Staphylococcus aureus, strain TMS4, read-out: MIC) was 4 µg/mL (≈ 9.89 µM) and the MIC (Staphylococcus aureus [8]; Staphylococcus aureus, strain TMS5, read-out: MIC) was 4 µg/mL (≈ 9.89 µM). For the same molecule, the MIC (Staphylococcus aureus [8]; Staphylococcus aureus, strain TMS6, read-out: MIC) was 2 µg/mL (≈ 4.95 µM), the MIC (Staphylococcus aureus [9]; S. aureus KU2240, mutant type Wild (wild strain)) was 0.063 µg/mL (≈ 0.156 µM) and the MIC (Staphylococcus aureus [9]; S. aureus KU2241, mutant type NorA (efflux-mediated quinolone resistant)) was 0.125 µg/mL (≈ 0.309 µM). For the same molecule, the MIC (Staphylococcus aureus [9]; S. aureus KU2242, mutant type T (DNA topoisomerase IV)) was 0.25 µg/mL (≈ 0.618 µM), the MIC (Staphylococcus aureus [9]; S. aureus KU2243, mutant type G+T (DNA gyrase and topoisomerase IV)) was over 128 µg/mL and the MIC (Staphylococcus aureus [9]; S. aureus KU2244, mutant type G (DNA gyrase)) was 0.125 µg/mL (≈ 0.309 µM). It also gave an MIC (Staphylococcus aureus [9]; S. aureus KU2246, mutant type T (DNA topoisomerase IV)) of 0.5 µg/mL (≈ 1.24 µM), an MIC (Enterococcus gallinarum) of 0.125 µg/mL (≈ 0.309 µM) and an MIC (Enterococcus gallinarum; Enterococcus gallinarum (vanC1), strain TMS1, read-out: MIC) of 0.25 µg/mL (≈ 0.618 µM). The MIC (Enterococcus gallinarum; Enterococcus gallinarum (vanC1), strain TMS2, read-out: MIC) was 0.5 µg/mL (≈ 1.24 µM), the MIC (Enterococcus gallinarum; Enterococcus gallinarum (vanC1), strain TMS3, read-out: MIC) was 0.5 µg/mL (≈ 1.24 µM) and the “MIC Range” value (Escherichia coli; [16]) was at most 0.008 to 0.25 µg/mL. It also gave an MIC50 (Escherichia coli; Escherichia coli ciprofloxacin resistant (n=5)) of 32 µg/mL (≈ 79.1 µM), an MIC90 (Escherichia coli; Escherichia coli ciprofloxacin resistant (n=5), values marked *: MIC80 value) of 32 µg/mL (≈ 79.1 µM) and an MIC50 (Escherichia coli; [16]) of 0.032 µg/mL (≈ 0.0791 µM). The MIC90 (Escherichia coli; [16]) was 0.032 µg/mL (≈ 0.0791 µM).
